Patent US20210186989A1, “ENHANCED TRAINED IMMUNITY IN MYELOID CELLS BY SHIP-1 INHIBITION” (CENTRO NACIONAL DE INVESTIGACIONES CARDIOVASCULARES CARLOS …, priority 2018, published 2021)

Assays:
[1] = system: mouse bone marrow-derived macrophages (BMDMs); experiment: Trained immunity in vitro model, TNFα by ELISA after LPS; format: cell-based; conditions: for TNF-alpha overproduction in trained LysMΔSHIP-1 BMDMs: 30 min pre-incubation before beta-glucan training; for boost of trained immunity (TNF alpha) in absence of SHIP-1: LysMΔSHIP-1 BMDMs, beta-glucan-trained, 30 min pre-incubation
Method: BMDMs (10^5) were plated in 96-well plates (200-μl final volume, Corning) and stimulated with R10 or 100 μg/ml β-glucan (whole glucan particles, WGP, Biothera, Eagan, Minn.) for 24h. Then, cells were washed and rested 3 days in culture medium. At day 4, BMDMs were washed again and primed with 25 ng/ml IFNγ (BD Biosciences, San Jose, Calif.) for 24h. On day 5, a final wash was performed and cells were stimulated with R10 or 1 μg/ml Escherichia coli LPS (EK, Invivogen, San Diego, Calif.). After 24h, supernatants were collected for TNFα measurement by ELISA (Opteia ELISA kit, BD Biosciences).
When required, BMDMs were pre-incubated for 30 minutes prior to β-glucan training with 1.5 μM Syk inhibitor (R406, Hozel diagnostic, Cologne, Germany), […] Raf-1 inhibitor (GW5074, Sigma), 500 μM MTA (5′-Deoxy-5′-(methylthio)adenosine, Sigma), 6 μM Pargyline (Sigma) or SHIP-1 inhibitor (SHIPi, 3-α-aminocholestane, 3AC, Calbiochem, Darmstad, Germany) at the indicated doses. Inhibitors were also added in the first wash-out, before the resting period.
(§1) For TNFα normalization, the fold of cells in each condition was calculated as follows: (Live cell number in condition X)/(live cell number in non-trained WT condition). In case of SHIP-1 inhibition experiments, non-treated cells were used as reference. Thus, TNFα per cell number was normalized as (absolute TNFα value)/(fold of cells).

[2] = system: human PBMCs; experiment: Viability of cells in human PBMC training scheme; format: cell-based; conditions: non-trained cells in human PBMC experiment (not shown)
Method: To assess cell viability, 3·10^6 total PBMCs were plated in 24-well plates (1200-μl final volume, Corning) and followed the training scheme described here. At day 7, prior to LPS stimulation, cells were collected in PBS/EDTA and stained on ice-cold FACS Buffer for flow cytometry analysis.

[3] = target: T1, SHIP-1 (Homo sapiens, UniProt Q92835); conditions: SHIP-1 inhibitor 3AC; value given in parentheses, no test described; cited from earlier work
T1 sequence (Q92835 1-1189): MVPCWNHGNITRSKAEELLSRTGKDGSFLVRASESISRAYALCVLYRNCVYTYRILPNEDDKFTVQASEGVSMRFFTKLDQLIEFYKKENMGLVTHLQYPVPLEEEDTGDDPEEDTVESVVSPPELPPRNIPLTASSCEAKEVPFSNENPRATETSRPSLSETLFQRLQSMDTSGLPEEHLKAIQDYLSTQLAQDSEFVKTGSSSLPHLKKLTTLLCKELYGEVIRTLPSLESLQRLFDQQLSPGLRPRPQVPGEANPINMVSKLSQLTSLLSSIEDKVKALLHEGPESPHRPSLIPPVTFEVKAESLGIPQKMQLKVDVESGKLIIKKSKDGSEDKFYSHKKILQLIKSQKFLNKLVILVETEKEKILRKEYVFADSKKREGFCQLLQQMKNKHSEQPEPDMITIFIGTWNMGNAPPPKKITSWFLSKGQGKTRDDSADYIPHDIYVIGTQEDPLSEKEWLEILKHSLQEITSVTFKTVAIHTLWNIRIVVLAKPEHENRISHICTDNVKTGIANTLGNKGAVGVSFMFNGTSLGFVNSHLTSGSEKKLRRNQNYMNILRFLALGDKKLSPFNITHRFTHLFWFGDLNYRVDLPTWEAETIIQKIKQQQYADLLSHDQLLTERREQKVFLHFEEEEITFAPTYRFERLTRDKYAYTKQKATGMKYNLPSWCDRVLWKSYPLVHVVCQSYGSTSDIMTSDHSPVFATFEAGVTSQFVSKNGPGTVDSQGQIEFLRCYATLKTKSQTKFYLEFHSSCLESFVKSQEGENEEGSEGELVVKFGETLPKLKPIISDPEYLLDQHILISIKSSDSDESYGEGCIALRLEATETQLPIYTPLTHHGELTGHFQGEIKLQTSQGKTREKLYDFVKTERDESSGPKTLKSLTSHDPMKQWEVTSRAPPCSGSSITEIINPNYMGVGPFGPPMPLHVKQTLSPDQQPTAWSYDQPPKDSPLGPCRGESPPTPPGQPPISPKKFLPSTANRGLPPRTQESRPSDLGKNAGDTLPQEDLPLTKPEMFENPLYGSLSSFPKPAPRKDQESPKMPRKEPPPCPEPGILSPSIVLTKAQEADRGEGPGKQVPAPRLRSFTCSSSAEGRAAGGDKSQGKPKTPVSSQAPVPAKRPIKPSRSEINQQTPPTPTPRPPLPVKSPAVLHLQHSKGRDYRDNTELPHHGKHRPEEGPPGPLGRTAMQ

[4] = system: mouse BMDMs; experiment: BMDM viability in the training scheme (FACS, Hoechst 33258 exclusion); format: cell-based
Method: To assess receptor expression and cell viability, 6·10^5 BMDMs were plated in non-treated 24-well plates (1200-μl final volume, Corning) and followed the training scheme described above. Dectin-1 expression was evaluated at day 0 prior to β-glucan addition. Cell viability and TLR4 expression were assessed on day 5 before LPS stimulation. At indicated times, cells were collected in PBS/EDTA and stained on ice-cold FACS Buffer (PBS/EDTA plus 3% FBS) for flow cytometry analysis.
Samples were stained with the appropriate antibody cocktails in ice-cold FACS Buffer at 4° C. for 15 minutes. Antibodies included mouse PE-anti-TLR4 (BioLegend, San Diego, Calif.) and APC-anti-Dectin-1 (Bio-Rad). Dead cells were excluded by Hoechst 33258 (Invitrogen, Carlsbad, Calif.) incorporation. Purified anti-FcγRIII/II (2.4G2, TONBO Bioscience, San Diego, Calif.) was used to block murine Fc-receptors at 4° C. for 10 minutes in all the stainings. Events were acquired using FACSCanto 3L (BD Biosciences). Data were analyzed with FlowJo software (Tree Star, Ashland, Oreg.).

[5] = system: Candida albicans SC5314; experiment: In vivo training followed by lethal systemic Candida albicans infection, survival; set-up: species or system mouse; conditions: 0.11 mg 3AC i.p. days -8 and -7, lethal 2·10^6 C. albicans i.v.
Method: Mice were trained with either two intraperitoneal (i.p.) injections of 1 mg β-glucan particles on days −7 and −4 or 2·10^4 Candida albicans intravenously (i.v) on day −7. Sterile PBS was used as control. One week later, mice were challenged with 5 μg E. coli LPS (serotype 055:B5, Sigma) i.p. and blood was collected 60 min later to assess the serum TNFα (Mouse TNFα DuoSet, R&D Systems). Alternatively, mice were lethally infected with 2·10^6 C. albicans i.v. and monitored daily for weight, general health and survival, following the institutional guidance. When required mice were i.p. treated with 0.11 mg 3AC on days −8 and −7.3AC was diluted in PBS 0.3% hydroxypropylcellulose (Sigma), used as control.

[6] = system: human peripheral blood mononuclear cells (PBMCs); experiment: Trained immunity in vitro model in human PBMCs, TNFα by ELISA after LPS; format: cell-based; conditions: beta-glucan-trained human PBMCs, 10 μM 3AC, LPS stimulation
Method: Total PBMCs (5·10^5) were plated in 96-well plates (200-μl final volume) and stimulated with 100 μg/ml β-glucan for 24h. Then, cells were washed and rested 6 days in culture medium. At day 7, PBMCs were stimulated with 1 μg/ml LPS (EK). After 24h, supernatants were collected for TNFα measurement by ELISA (Human TNFα DuoSet, R&D Systems, Abingdon, UK). When required, PBMCs were pre-incubated for 30 minutes prior to β-glucan training with 10 μM 3AC. Inhibitor was also added together with the first wash-out, before the resting period.
as §1

Compound: CSC[C@H]1O[C@@H](n2cnc3c(N)ncnc32)[C@H](O)[C@@H]1O [MTA, 5′-Deoxy-5′-(methylthio)adenosine]
- TNF-alpha overproduction in trained LysMΔSHIP-1 BMDMs ([1]; 500 μM): inhibited the increase in TNF-alpha

Compound: CC(C)CCC[C@@H](C)[C@H]1CC[C@H]2[C@@H]3CC[C@H]4C[C@H](N)CC[C@]4(C)[C@H]3CC[C@]12C [3AC, 3α-aminocholestane]
- toxicity for non-trained cells [2]: toxic
- IC50 [3]: 13.5 µM
- TNF-alpha production in supernatants ([1]; beta-glucan-trained BMDMs, different doses of 3AC 30 min before training and after wash-out, LPS challenge): boosted TNF-alpha production in a dose-dependent manner
- survival of non-trained BMDMs ([4]; 5 day-long in vitro culture in the presence of 3AC): did not survive
- survival of trained BMDMs ([4]; beta-glucan-trained, in the presence of 3AC): did not affect survival
- survival of non-trained mice [5]: did not impact on the survival
- survival of Candida-trained mice ([5]; training 2·10^4 C. albicans i.v. day -7): improved the survival
- TNF-alpha production in supernatants [6]: boosted TNF-alpha production

Compound: COc1cc(Nc2ncc(F)c(Nc3ccc4c(n3)NC(=O)C(C)(C)O4)n2)cc(OC)c1OC [R406]
- boost of trained immunity (TNF alpha) in absence of SHIP-1 ([1]; 1.5 μM): abolished the boost of trained immunity

Compound: O=C1Nc2ccc(I)cc2/C1=C/c1cc(Br)c(O)c(Br)c1 [GW5074]
- boost of trained immunity (TNF alpha) in absence of SHIP-1 [1]: did not affect this process

Compound: C#CCN(C)Cc1ccccc1 [pargyline, Pargyline]
- TNF-alpha overproduction in trained LysMΔSHIP-1 BMDMs ([1]; 6 μM): had no effect
